Laboratory results taken from patent publication US4160829A, “Antibacterial 1,2,4-oxadiazolylacetamido cephalosporins” (Gist-Brocades N.V., priority 1972, dated 1979).
Converted amounts (≈) assume the structure as drawn. Where two headings read alike, the source gives them in different places.

Experiments:
Prot.mirab. L 93 = assay: agar serial dilution test; format: cell-based, Proteus mirabilis; conditions: Proteus mirabilis
Past.multo. A 723 = assay: agar serial dilution test; format: cell-based, Pasteurella multocida; conditions: Pasteurella multocida; agar serial dilution, 24 hours, 37° C.; read-out: minimal inhibitory concentration (MIC)
Staph.aureus A 2001 [1] = assay: agar serial dilution test; format: cell-based, Staphylococcus aureus; conditions: Staphylococcus aureus, A2001, 24 h, agar serial dilution, 24 hours, 37° C.; read-out: minimal inhibitory concentration (MIC)
Strep.haem. A 266 = assay: agar serial dilution test; format: cell-based, Streptococcus haemolyticus; conditions: Streptococcus; agar serial dilution, 24 hours, 37° C.; read-out: minimal inhibitory concentration (MIC)
Salm.typh. R 127 = assay: agar serial dilution test; format: cell-based; conditions: 24 h, 37° C., read-out: minimal inhibitory concentration (MIC)
Strep. faec. L 80 = assay: agar serial dilution test; format: cell-based, Streptococcus faecalis; conditions: Enterococcus faecalis; agar serial dilution, 24 hours, 37° C.; read-out: minimal inhibitory concentration (MIC)
Staph.aureus A 2001 [2] = assay: micro serial dilution test; format: cell-based, Staphylococcus aureus; conditions: Staphylococcus aureus, A2001, 18 h, micro serial dilution (in brackets), about 18 hours, 30° C. or 37° C.; read-out: minimal inhibitory concentration (MIC)
Bac.Subt.ATCC 6633 = assay: agar serial dilution test; format: cell-based, Bacillus subtilis; conditions: Bacillus subtilis, ATCC6633, 24 h, agar serial dilution, 24 hours, 37° C.; read-out: minimal inhibitory concentration (MIC)
Staph.aureus A 2000 [3] = assay: agar serial dilution test; format: cell-based, Staphylococcus aureus; conditions: Staphylococcus aureus, A2000, 24 h, agar serial dilution, 24 hours, 37° C.; read-out: minimal inhibitory concentration (MIC)
Prot.rettg. A 821 = assay: agar serial dilution test; format: cell-based, Proteus rettgeri; conditions: Providencia rettgeri, 24 h, read-out: minimal inhibitory concentration (MIC)
Prot.mirab. A 1200 = assay: agar serial dilution test; format: cell-based, Proteus mirabilis; conditions: agar serial dilution, 24 hours, 37° C.
Pseud.aerug. 2396 = assay: agar serial dilution test; format: cell-based; conditions: agar serial dilution, 24 hours, 37° C.; read-out: minimal inhibitory concentration (MIC)
Prot.morg. 2241 = assay: agar serial dilution test; format: cell-based; conditions: 24 h, agar serial dilution, 24 hours, 37° C.; read-out: minimal inhibitory concentration (MIC)
[4] = system: penicillin resistant Staphylococcus aureus strain; assay: protection test; format: in vivo; conditions: sc, protection test, subcutanal administration, read-out: ED50
Description: The compound may preferably be used parenterally.

Staph.aureus A 321 = assay: agar serial dilution test; format: cell-based, Staphylococcus aureus; conditions: Staphylococcus aureus, A321, 24 h, agar serial dilution, 24 hours, 37° C.; read-out: minimal inhibitory concentration (MIC)
Dipl.pneum. L 54 = assay: agar serial dilution test; format: cell-based, Diplococcus pneumoniae; conditions: Streptococcus pneumoniae; agar serial dilution, 24 hours, 37° C.; read-out: minimal inhibitory concentration (MIC)
Shig.equir. T 3 = assay: agar serial dilution test; format: cell-based; conditions: 37° C.
Salm.dubl. P 43 = assay: agar serial dilution test; format: cell-based, Salmonella dublin; conditions: Salmonella enterica; agar serial dilution, 24 hours, 37° C.; read-out: minimal inhibitory concentration (MIC)
Pseud.aerug. H 10 = assay: agar serial dilution test; format: cell-based; conditions: agar serial dilution, 24 hours, 37° C.; read-out: minimal inhibitory concentration (MIC)
[5] = system: Pseud.aerug. Wyeth A 1058; assay: agar serial dilution test; format: cell-based; conditions: agar serial dilution, 24 hours, 37° C.; read-out: minimal inhibitory concentration (MIC)
Kleb.pneum. A 809 = assay: agar serial dilution test; format: cell-based, Klebsiella pneumoniae; conditions: Klebsiella pneumoniae; agar serial dilution, 24 hours, 37° C.; read-out: minimal inhibitory concentration (MIC)
[6] = tests with mice, blood levels and urine activity
Prot.mirab. H 3 = assay: agar serial dilution test; format: cell-based, Proteus mirabilis; conditions: Proteus mirabilis; agar serial dilution, 24 hours, 37° C.; read-out: minimal inhibitory concentration (MIC)
Staph.aureus A 2000 [7] = assay: micro serial dilution test; format: cell-based, Staphylococcus aureus; conditions: Staphylococcus aureus, A2000, 18 h, micro serial dilution (in brackets), about 18 hours, 30° C. or 37° C.; read-out: minimal inhibitory concentration (MIC)
Staph.aureus A 355 [8] = assay: micro serial dilution test; format: cell-based, Staphylococcus aureus; conditions: Staphylococcus aureus, A355; micro serial dilution (in brackets), about 18 hours, 30° C. or 37° C.; penicillinase-producing strain; read-out: minimal inhibitory concentration (MIC)
Staph.aureus A 355 [9] = assay: agar serial dilution test; conditions: Staphylococcus aureus, A355, 24 h, read-out: minimal inhibitory concentration (MIC), agar serial dilution, 24 hours, 37° C.; penicillinase-producing strain
Esch.coli U 20 = assay: agar serial dilution test; format: cell-based, Escherichia coli; conditions: Escherichia coli, U20, 24 h, read-out: minimal inhibitory concentration (MIC), agar serial dilution, 24 hours, 37° C.
[10] = stability in refluxing slightly moist diethyl ether (thin-layer chromatography); format: physicochemical; conditions: refluxed 24 hours, read-out: destruction to 5-methyl-1,2,4-oxadiazol-3-yl-acetic acid
Experimental: Stability of 1,2,4-oxadiazol-3,5-diyl-bisacetic acid: A small sample was dissolved in slightly moist diethyl ether and the solution was refluxed for 24 hours.

With `COCc1noc(CC(=O)N[C@@H]2C(=O)N3C(C(=O)O)=C(COC(C)=O)CS[C@H]23)n1` [Example 37, 7-[3-methoxymethyl-1,2,4-oxadiazol-5-yl-acetamido]-cephalosporanic acid] the MIC (Prot.mirab. L 93; 24 h, read-out: minimal inhibitory concentration (MIC), agar serial dilution, 24 hours, 37° C.) was 12.5 µg/mL (≈ 29.3 µM), the MIC (Prot.mirab. L 93; agar serial dilution, 24 hours, 37° C., read-out: minimal inhibitory concentration (MIC)) was 6 µg/mL (≈ 14.1 µM) and the MIC (Past.multo. A 723) was 1 µg/mL (≈ 2.35 µM). It also gave an MIC (Staph.aureus A 2001 [1]) of 0.75 µg/mL (≈ 1.76 µM), an MIC (Strep.haem. A 266) of 0.12 µg/mL (≈ 0.281 µM) and an MIC (Salm.typh. R 127) of 12.5 µg/mL (≈ 29.3 µM). For the same compound, the MIC (Strep. faec. L 80) was 50 µg/mL (≈ 117 µM), the MIC (Staph.aureus A 2001 [2]) was 0.45 µg/mL (≈ 1.06 µM) and the MIC (Bac.Subt.ATCC 6633) was 0.12 µg/mL (≈ 0.281 µM). It also gave an MIC (Staph.aureus A 2000 [3]) of 1.5 µg/mL (≈ 3.52 µM), an MIC (Prot.rettg. A 821; agar serial dilution, 24 hours, 37° C.) of 3 µg/mL (≈ 7.04 µM) and an MIC (Prot.rettg. A 821) of 12.5 µg/mL (≈ 29.3 µM). The MIC (Prot.mirab. A 1200; Proteus mirabilis, 24 h, read-out: minimal inhibitory concentration (MIC)) was 50 µg/mL (≈ 117 µM), the “minimal inhibitory concentration (MIC)” value (Prot.mirab. A 1200) was 100 µg/mL (≈ 235 µM) and the MIC (Pseud.aerug. 2396) was over 100 µg/mL. For the same compound, the MIC (Prot.morg. 2241) was over 100 µg/mL, the ED50 [4] was 1.2 mg/kg and the MIC (Staph.aureus A 321) was 0.5 µg/mL (≈ 1.17 µM). The MIC (Dipl.pneum. L 54) was 0.75 µg/mL (≈ 1.76 µM), the MIC (Shig.equir. T 3; 24 h, read-out: minimal inhibitory concentration (MIC)) was 3 µg/mL (≈ 7.04 µM) and the “minimal inhibitory concentration (MIC)” value (Shig.equir. T 3; 24 hours) was 6 µg/mL (≈ 14.1 µM). For the same compound, the MIC (Salm.dubl. P 43) was 3 µg/mL (≈ 7.04 µM), the MIC (Pseud.aerug. H 10) was over 100 µg/mL and the MIC [5] was over 100 µg/mL. For the same compound, the MIC (Kleb.pneum. A 809) was 3 µg/mL (≈ 7.04 µM), the “blood levels (in words)” value [6] was “good blood levels” and the “urine activity against pathogenic germs (in words)” value [6] was “strong urine activity against pathogenic germs”. It also gave an MIC (Prot.mirab. H 3) of 25 µg/mL (≈ 58.6 µM), an MIC (Staph.aureus A 2000 [7]) of 0.6 µg/mL (≈ 1.41 µM) and an MIC (Staph.aureus A 355 [8]) of 0.9 µg/mL (≈ 2.11 µM). For the same compound, the MIC (Staph.aureus A 355 [9]) was 1.5 µg/mL (≈ 3.52 µM) and the MIC (Esch.coli U 20) was 12.5 µg/mL (≈ 29.3 µM).
`O=C(O)Cc1noc(CC(=O)O)n1` [Example 39, 1,2,4-oxadiazole-3,5-diyl-bisacetic acid] gave a degraded at 24 h [10] of under 5%.
